The target in experiment [1] is T1, human BRD4 bromodomain II (Homo sapiens, UniProt O60885).
T1 construct: human BRD4 bromodomain II [based on Genbank NM_058243, residues 349-460]; host or cells: E. coli
Nature of the experiment: Bromodomain binding assay (AlphaScreen), BRD4 BDII. To be noted: BRD4 BDII AlphaScreen assay; read-out: BRD4 BD2 IC50. Summed up: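 Compounds (10-point, 3-fold series) were preincubated 30 min at room temperature with E. coli-expressed N-terminal His6-tagged BRD4 BDII (residues 349-460) or BDI (residues 44-170) in 50 mM HEPES pH 7.5, 100 mM NaCl, 0.05% CHAPS, 0.1% BSA, 1% DMSO. Displacement of biotinylated tetra-acetylated H4 1-21 peptide was read by AlphaScreen; IC50 from curve fitting.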
On the technique in general: Alpha assays give light when donor and acceptor beads are brought close together.

In experiment [2] the test system is human SKM-1 acute myeloid leukemia cells. Nature of the experiment: SKM-1 antiproliferation cell-based assay (ATPlite). Summed up:
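Log-phase cells in RPMI 1640/15% FBS were seeded at 34722 cells/mL and exposed for 4 days to nine-concentration DMSO serial dilutions in triplicate. Viability was read as ATP luminescence (ATPlite 1step), and IC50 values came from variable-slope non-linear regression.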
On the technique in general: ATP-based viability assays read luminescence as a measure of living cells.

Where [3] appears, read: Homo sapiens, SKM-1, SKM-1 antiproliferation assay.

Where only a bound is given, the exact number is not on record here.

As for `Cc1cc(-c2cccc(N3CCN(C(C)(C)C)CC3)c2)c(O)c(-c2ccc(-n3ccn(C)c3=O)c(Cl)c2)n1` [Example 917, 1-(4-(4-(3-(4-(tert-Butyl)piperazin-1-yl)phenyl)-3-hydroxy-6-methylpyridin-2-yl)-2-chlorophenyl)-3-methyl-1H-imidazol-2(3H)-one], the IC50 – broadly, the concentration at which inhibition is half-maximal – in experiment [1] was 1 to 10 nM. In experiment [2] (setting [3]), the GI50 (usually the concentration giving 50% growth inhibition) was 30 to 300 nM.
Regarding `CN1CCN(c2ccc(-c3cc(F)cc(-c4cccc(N5CCN(C(C)(C)C)CC5)c4)c3O)cc2Cl)C1=O` [Example 918, 1-(3″-(4-(tert-butyl)piperazin-1-yl)-3-chloro-5′-fluoro-2′-hydroxy-[1,1′:3′,1″-terphenyl]-4-yl)-3-methylimidazolidin-2-one], in experiment [1], the IC50 lay within 1 to 10 nM. Moreover, the GI50 in experiment [2] (setting [3]) was 0.3 to 30 nM.
As for `CC(=O)Nc1ccc(-c2cc(F)cc(-c3cccc(N4CCN(C(C)(C)C)CC4)c3)c2O)cc1Cl` [Example 919, N-(3″-(4-(tert-butyl)piperazin-1-yl)-3-chloro-5′-fluoro-2′-hydroxy-[1,1′:3′,1″-terphenyl]-4-yl)acetamide], in experiment [1], the IC50 lay within 1 to 10 nM. For the same molecule, the GI50 in experiment [2] (setting [3]) was 300 to 3000 nM.
On to `Cc1nc(-c2cccc(N3CCN(C(C)(C)C)CC3)c2)c(O)c(-c2ccc(-n3ccn(C)c3=O)c(Cl)c2)n1` [Example 920, 1-(4-{6-[3-(4-tert-Butyl-piperazin-1-yl)-phenyl]-5-hydroxy-2-methyl-pyrimidin-4-yl}-2-chloro-phenyl)-3-methyl-1,3-dihydro-imidazol-2-one], for which, in experiment [1], the IC50 is over 100 nM. In experiment [2] (setting [3]), this molecule came in with a GI50 of 30 to 300 nM.
In the same order, the values of `CNC(=O)Nc1ccc(-c2cc(F)cc(-c3cccc(N4CCN(C(C)(C)C)CC4)c3)c2O)cc1Cl` [Example 921, 1-(3″-(4-(tert-Butyl)piperazin-1-yl)-3-chloro-5′-fluoro-2′-hydroxy-[1,1′:3′,1″-terphenyl]-4-yl)-3-methylurea] are 10 to 100 nM and 300 to 3000 nM.
Take `CN(C)c1ncc(-c2cc(F)cc(-c3ccc(-n4ccn(C)c4=O)c(Cl)c3)c2O)cc1N1CCN(C(C)(C)C)CC1` [Example 922, 1-(3′-(5-(4-(tert-Butyl)piperazin-1-yl)-6-(dimethylamino)pyridin-3-yl)-3-chloro-5′-fluoro-2′-hydroxy-[1,1′-biphenyl]-4-yl)-3-methyl-1H-imidazol-2(3H)-one]: the IC50 in experiment [1] was 0.01 to 1 nM. Further, the GI50 in experiment [2] (setting [3]) lay in the range of 0.3 to 30 nM.
On to `CNc1ncc(-c2cc(F)cc(-c3ccc(-n4ccn(C)c4=O)c(Cl)c3)c2O)cc1N1CCN(C(C)(C)C)CC1` [Example 923, 1-(3′-(5-(4-(tert-Butyl)piperazin-1-yl)-6-(methylamino)pyridin-3-yl)-3-chloro-5′-fluoro-2′-hydroxy-[1,1′-biphenyl]-4-yl)-3-methyl-1H-imidazol-2(3H)-one], for which the IC50 in experiment [1] was in the range of 0.01 to 1 nM. For the same molecule, the concentration for 50% growth inhibition (GI50) in experiment [2] (setting [3]) lay within 0.3 to 30 nM.
On to `CC(C)COc1cc(-c2cc(F)cc(-c3cccc(N4CCN(C(C)(C)C)CC4)c3)c2O)cc(Cl)c1-n1ccn(C)c1=O` [Example 924, 1-(3″-(4-(tert-Butyl)piperazin-1-yl)-3-chloro-5′-fluoro-2′-hydroxy-5-isobutoxy-[1,1′:3′,1″-terphenyl]-4-yl)-3-methyl-1H-imidazol-2(3H)-one], for which the IC50 in experiment [1] fell in the range of 10 to 100 nM. In addition, in experiment [2] (setting [3]), the GI50 lay within 30 to 300 nM.
In the same order, the values of `CCOc1cc(-c2cc(F)cc(-c3cccc(N4CCN(C(C)(C)C)CC4)c3)c2O)cc(Cl)c1-n1ccn(C)c1=O` [Example 925, 1-(3″-(4-(tert-Butyl)piperazin-1-yl)-3-chloro-5-ethoxy-5′-fluoro-2′-hydroxy-[1,1′:3′,1″-terphenyl]-4-yl)-3-methyl-1H-imidazol-2(3H)-one] are 10 to 100 nM and 30 to 300 nM.
As for `[2H]C([2H])([2H])Oc1ncc(-c2cc(F)cc(-c3ccc(-n4ccn(C)c4=O)c(Cl)c3)c2O)cc1N1CCN(C(C)(C)C)CC1` [Example 926, 1-(3′-(5-(4-(tert-Butyl)piperazin-1-yl)-6-(methoxy-d3)pyridin-3-yl)-3-chloro-5′-fluoro-2′-hydroxy-[1,1′-biphenyl]-4-yl)-3-methyl-1,3-dihydro-2H-imidazol-2-one], in experiment [1], the IC50 lay within 0.01 to 1 nM. In addition, the concentration for 50% growth inhibition (GI50) in experiment [2] (setting [3]) was 0.3 to 30 nM.
With `Cc1cc(-c2cc(F)cc(-c3cccc(N4CCN(C(C)(C)C)CC4)c3)c2O)cc(Cl)c1-n1ccn(C)c1=O` [Example 927, 1-(3″-(4-(tert-butyl)piperazin-1-yl)-3-chloro-5′-fluoro-2′-hydroxy-5-methyl-[1,1′:3′,1″-terphenyl]-4-yl)-3-methyl-1H-imidazol-2(3H)-one], the IC50 in experiment [1] fell in the range of 10 to 100 nM. Also, in experiment [2] (setting [3]), the GI50 was in the range of 30 to 300 nM.
Turning to `CC(C)(C)N1CCN(c2cccc(-c3cc(F)cc(-c4ccc(-n5cc[nH]c5=O)c(Cl)c4)c3O)c2)CC1` [Example 928, 1-(3″-(4-(tert-butyl)piperazin-1-yl)-3-chloro-5′-fluoro-2′-hydroxy-[1,1′:3′,1″-terphenyl]-4-yl)-1H-imidazol-2(3H)-one], in experiment [1], the IC50 was 1 to 10 nM. The molecule also registered a GI50 in experiment [2] (setting [3]) of 30 to 300 nM.
In the same order, the values of `CCc1cc(-c2cc(F)cc(-c3cccc(N4CCN(C(C)(C)C)CC4)c3)c2O)cc(Cl)c1-n1ccn(C)c1=O` [Example 929, 1-(3″-(4-(tert-butyl)piperazin-1-yl)-3-chloro-5-ethyl-5′-fluoro-2′-hydroxy-[1,1′:3′,1″-terphenyl]-4-yl)-3-methyl-1H-imidazol-2(3H)-one] are over 100 nM and 300 to 3000 nM.
Regarding `Cn1ccn(-c2c(Cl)cc(-c3cc(F)cc(-c4cccc(N5CCN(C(C)(C)C)CC5)c4)c3O)cc2OC2CC2)c1=O` [Example 930, 1-(3″-(4-(tert-butyl)piperazin-1-yl)-3-chloro-5-cyclopropoxy-5′-fluoro-2′-hydroxy-[1,1′:3′,1″-terphenyl]-4-yl)-3-methyl-1H-imidazol-2(3H)-one], the IC50 in experiment [1] is over 100 nM. The molecule further showed a GI50 in experiment [2] (setting [3]) of 300 to 3000 nM.
Consider `Cn1ccn(-c2c(OC3CC3)ccc(-c3cc(F)cc(-c4cccc(N5CCN(C(C)(C)C)CC5)c4)c3O)c2Cl)c1=O` [Example 931, 1-(3″-(4-(tert-butyl)piperazin-1-yl)-2-chloro-4-cyclopropoxy-5′-fluoro-2′-hydroxy-[1,1′:3′,1″-terphenyl]-3-yl)-3-methyl-1,3-dihydro-2H-imidazol-2-one], for which the IC50 in experiment [1] was over 100 nM. Further, the GI50 in experiment [2] (setting [3]) is 300 to 3000 nM.
In the same order, the values of `CC(C)c1cc(-c2cc(F)cc(-c3cccc(N4CCN(C(C)(C)C)CC4)c3)c2O)cc(Cl)c1-n1ccn(C)c1=O` [Example 932, 1-(3″-(4-(tert-butyl)piperazin-1-yl)-3-chloro-5′-fluoro-2′-hydroxy-5-isopropyl-[1,1′:3′,1″-terphenyl]-4-yl)-3-methyl-1H-imidazol-2(3H)-one] are over 100 nM and 300 to 3000 nM.
Turning to `Cn1ccn(-c2c(Cl)cc(-c3cc(F)cc(-c4cccc(N5CCN(C(C)(C)C)CC5)c4)c3O)cc2C2CC2)c1=O` [Example 933, 1-(3″-(4-(tert-butyl)piperazin-1-yl)-3-chloro-5-cyclopropyl-5′-fluoro-2′-hydroxy-[1,1′:3′,1″-terphenyl]-4-yl)-3-methyl-1H-imidazol-2(3H)-one], in experiment [1], the IC50 lay within 10 to 100 nM. This molecule also showed a GI50 in experiment [2] (setting [3]) of 30 to 300 nM.
On to `CC(C)c1cc(-c2cc(F)cc(-c3cccc(N4CCN(C(C)(C)C)CC4)c3)c2O)cc(Cl)c1-n1ccn(C)c1=O` [Example 934, (R)-1-(3″-(4-(tert-butyl)piperazin-1-yl)-3-chloro-5′-fluoro-2′-hydroxy-5-isopropyl-[1,1′:3′,1″-terphenyl]-4-yl)-3-methyl-1,3-dihydro-2H-imidazol-2-one], for which the IC50 in experiment [1] is over 100 nM. In addition, the GI50 in experiment [2] (SKM-1 antiproliferation assay) was in the range of 300 to 3000 nM.
Turning to `CC(C)c1cc(-c2cc(F)cc(-c3cccc(N4CCN(C(C)(C)C)CC4)c3)c2O)cc(Cl)c1-n1ccn(C)c1=O` [Example 935, (S)-1-(3″-(4-(tert-butyl)piperazin-1-yl)-3-chloro-5′-fluoro-2′-hydroxy-5-isopropyl-[1,1′:3′,1″-terphenyl]-4-yl)-3-methyl-1,3-dihydro-2H-imidazol-2-one], the IC50 in experiment [1] was over 100 nM. In experiment [2] (SKM-1 antiproliferation assay), the GI50 lay in the range of 300 to 3000 nM.
As to `Cc1nc(-c2cc(F)cc(-c3cccc(N4CCN(C(C)(C)C)CC4)c3)c2O)ccc1-n1ccn(C)c1=O` [Example 936, 1-(6-(3′-(4-(tert-butyl)piperazin-1-yl)-5-fluoro-2-hydroxy-[1,1′-biphenyl]-3-yl)-2-methylpyridin-3-yl)-3-methyl-1H-imidazol-2(3H)-one], the IC50 in experiment [1] was over 100 nM. For the same molecule, the GI50 in experiment [2] (setting [3]) was 300 to 3000 nM.
Taken in the same sequence, the figures for `CC(C)Oc1cc(-c2cc(F)cc(-c3cccc(N4CCN(C(C)(C)C)CC4)c3)c2O)cc(Cl)c1-n1ccn(C)c1=O` [Example 937, 1-(3″-(4-(tert-butyl)piperazin-1-yl)-3-chloro-5′-fluoro-2′-hydroxy-5-isopropoxy-[1,1′:3′,1″-terphenyl]-4-yl)-3-methyl-1,3-dihydro-2H-imidazol-2-one] were 10 to 100 nM and 30 to 300 nM.
For the molecule `[2H]C([2H])([2H])n1ccn(-c2ccc(-c3cc(F)cc(-c4cnc(OC)c(N5CCN(C(C)(C)C)CC5)c4)c3O)cc2Cl)c1=O` [Example 938, 1-(3′-(5-(4-(tert-butyl)piperazin-1-yl)-6-methoxypyridin-3-yl)-3-chloro-5′-fluoro-2′-hydroxy-[1,1′-biphenyl]-4-yl)-3-(methyl-d3)-1,3-dihydro-2H-imidazol-2-one], in experiment [1], the IC50 fell in the range of 1 to 10 nM. Besides, the concentration for 50% growth inhibition (GI50) in experiment [2] (setting [3]) fell in the range of 0.3 to 30 nM.

(Values after patent US20250179059A1 (The Regents of the University of California, priority 2021, published 2025).)
